Measured values taken from patent publication US7202093B2, “Method for labeling phosphorylated peptides, method for selectively adsorbing phosphorylated peptides, complex compounds used in the methods, process for producing the complex compounds, and raw material compounds for the complex compounds” (Kabushiki Kaisha Nard Kenkyusho, priority 2003, dated 2007).
No end group written: not given here.

Experiments:
Format in all cases: binding
[1] = system: inventive complex compound (compound of Production Example 3-1 + zinc acetate) bonded to Streptavidin agarose; experiment: Selective adsorption of peptides on Streptavidin agarose carrying the inventive zinc complex, fractions quantified by HPLC (Experimental Example 2); conditions: for isolation/recovery rate of the peptide to the total amount, fraction 1: filtrate of sample in 5.0 mM Tris-acetate buffer pH 7.4; for isolation/recovery rate of the peptide to the total amount, fraction 1 / isolation/recovery rate of the peptide to the total amount, fraction 5 / isolation/recovery rate of the peptide to the total amount, fraction 2 / isolation/recovery rate of the peptide to the total amount, fraction 6 / isolation/recovery rate of the peptide to the total amount, fraction 3 / isolation/recovery rate of the peptide to the total amount, fraction 4: agarose with zinc complex of Production Example 3-1; for isolation/recovery rate of the peptide to the total amount, fraction 5: first filtration with 1.0 mM phosphoric acid-sodium hydroxide buffer pH 7.4, 0.50M NaNO3; for isolation/recovery rate of the peptide to the total amount, fraction 2: first filtration with 5.0 mM Tris-acetate buffer pH 7.4, 0.50M NaNO3; for isolation/recovery rate of the peptide to the total amount, fraction 6: second filtration with 1.0 mM phosphoric acid-sodium hydroxide buffer pH 7.4, 0.50M NaNO3; for isolation/recovery rate of the peptide to the total amount, fraction 3: second filtration with 5.0 mM Tris-acetate buffer pH 7.4, 0.50M NaNO3; for isolation/recovery rate of the peptide to the total amount, fraction 4: third filtration with 5.0 mM Tris-acetate buffer pH 7.4, 0.50M NaNO3
Protocol: (§1) The suspension (0.3 mL) containing Streptavidin agarose (quantity of the bonded moiety of biotin: 60 to 120 nmol/mL) and a buffer (Sigma-Aldrich Co.) was charged in a centrifugal filter unit (volume: 0.5 mL filter pore diameter: 0.22 μm). The filter unit was subjected to centrifugal separation at centrifugal acceleration of 2,000×g for 15 seconds, followed by filtration of the suspension. 5.0 mM Tris-acetate buffer (pH=7.4, 0.30 mL) was charged in the filter unit, then the filter unit was subjected to centrifugal separation at 2,000×g for 15 seconds and filtration for washing. This centrifugal separation and filtration step for washing was cyclically repeated for 5 times.
To the filter unit, charged was 5.0 mM Tris-acetate buffer (pH=7.4, 0.30 mL) dissolving 120 nmol/mL of the compound obtained in Production Example 3-1 and 500 nmol/mL of zinc acetate. The filter unit was brought to an equilibrium state for 5 minutes, and then, subjected to centrifugal separation at 2,000×g for 15 seconds and filtration. Next, 5.0 mM Tris-acetate buffer (pH=7.4, 0.30 mL) was charged in the filter unit, and subjected to centrifugal separation at 2,000×g for 15 seconds and filtration for washing. This centrifugal separation and filtration step for washing was cyclically repeated for 5 times. Further, 5.0 mM Tris-acetate buffer (pH=7.4, 0.30 mL) dissolving 10 nmol/mL of zinc acetate was charged in the filter unit, and subjected to centrifugal separation at 2,000×g for 15 seconds and filtration for washing. This centrifugal separation and filtration step for washing was cyclically repeated for 5 times.
To the filter unit, charged was 5.0 mM Tris-acetate buffer (pH=7.4, 0.30 mL) dissolving non-phosphorylated peptide p60c (p60c-src peptide 521–533, 14 nmol/mL) and phosphorylated peptide P-p60c (O-phosphoryl p60c-src peptide 521–533, 12 nmol/mL), as samples. The filter unit was brought to an equilibrium state for 5 minutes, and then, subjected to centrifugal separation at 2,000×g for 15 seconds and filtration. The obtained filtrate was taken out as a fraction 1.
Next, 5.0 mM Tris-acetate buffer (pH=7.4, 0.50M NaNO3, 0.30 mL) was charged in the filter unit, and the filter unit was subjected to centrifugal separation at 2,000×g for 15 seconds and filtration for 3 times. The filtrate obtained after the first filtration was taken out as a fraction 2, the filtrate after the second filtration was taken out as a fraction 3, and the filtrate after the third filtration was taken out as a fraction 4.
Furthermore, 1.0 mM buffer containing phosphoric acid-sodium hydroxide (pH=7.4, 0.50M NaNO3, 0.30 mL) was charged in the filter unit, and the filter unit was subjected to centrifugal separation at 2,000×g for 15 seconds and filtration for 2 times. The filtrate obtained after the first filtration was taken out as a fraction 5, and the filtrate after the second filtration was taken out as a fraction 6.
The contents of the peptide in the respective fractions 1 through 6 were quantitatively determined by high performance liquid chromatography (HPLC).
(§2) Analyzing conditions according to HPLC: • column: Capcell Pak C18 type UG80, 4.6 mm (diameter)×150 mm • mobile phase: acetonitrile:water=14:86(v/v), 0.1%(v/v) of trifluoroacetic acid • flow rate: 1 mL/min. • column temperature: 40° C. • detecting method: UV 266 nm • retention time: P-p60c (5.3 min.). p60c (13.4 min.)

[2] = molecular target: T1, Streptavidin agarose (Streptomyces avidinii, UniProt P22629); experiment: Same fractionation on Streptavidin agarose without the inventive complex compound (Comparative Example 1); conditions: inventive complex compound not included; for isolation/recovery rate of the peptide, fraction 7: step as fraction 1 (sample filtrate, Tris-acetate pH 7.4); for isolation/recovery rate of the peptide, fraction 8: step as fraction 2 (Tris-acetate, 0.50M NaNO3, first); for isolation/recovery rate of the peptide, fraction 9: step as fraction 3 (Tris-acetate, 0.50M NaNO3, second); for isolation/recovery rate of the peptide, fraction 10: step as fraction 4 (Tris-acetate, 0.50M NaNO3, third); for isolation/recovery rate of the peptide, fraction 11: step as fraction 5 (phosphate buffer, first); for isolation/recovery rate of the peptide, fraction 12: step as fraction 6 (phosphate buffer, second)
T1 construct: purchased Sigma-Aldrich Co
T1 sequence (P22629 25-183): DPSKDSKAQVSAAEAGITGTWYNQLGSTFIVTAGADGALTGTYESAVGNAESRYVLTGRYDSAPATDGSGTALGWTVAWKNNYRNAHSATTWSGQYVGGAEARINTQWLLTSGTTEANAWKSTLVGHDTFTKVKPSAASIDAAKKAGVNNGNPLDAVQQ
Protocol: as §2
as §1, with “of biotin;” for “of biotin:”, “0.5 mL,” for “0.5 mL”, “at” for “at centrifugal acceleration of”, “suspension. Then,” for “suspension.”, “unit, and” for “unit, then”
A process similar to the process in Experiment Example 2 was conducted with use of samples equivalent to the samples used in Experimental Example 2, using a filter unit (in this Comparative Example, the inventive complex compound was not included). Thus, fractions 7 through 12 were obtained.
HPLC analysis was conducted with respect to the fractions 7 through 12 in a similar manner as Experimental Example 2.

[3] = system: α-casein (phosphorylated), β-casein (phosphorylated), pepsin (phosphorylated); experiment: 10% native-polyacrylamide gel electrophoresis, gel stained and imaged by fluoro image analyzer (Experimental Example 3); conditions: ten protein samples
Protocol: First, prepared were gels for electrophoresis, pH buffer for electrophoresis, and a coloring solution for dissolving samples under the same condition as in Experimental Example 1.
Next, 2 μg each of 1: Bovine Serum Albumin, 2: Human Serum Albumin, 3: carbonic anhydrase, 4: β-galactosidase, 5: α-casein (phosphorylated), 6: α-casein (de-phosphorylated), 7: β-casein (phosphorylated), 8: β-casein (de-phosphorylated), 9: pepsin (phosphorylated), and 10: pepsin (de-phosphorylated) was dissolved in the coloring solution to prepare samples. The respective samples were plotted on the gel. Then, a constant electric current of 40 mA was applied until the coloring marker was flowed.
The obtained gel was immersed in a 10 mM Tris-acetate buffer (pH=7.4) containing 1 μM of N,N,N′-tri(2-pyridylmethyl)-N′-[5-N″-(2-N-5-fluoresceinylthioureidoethyl)carbamoyl-2-pyridylmethyl]-1,3-diamopropane-2-ol obtained in Production Example 8-1 and 100 μM zinc acetate for 30 minutes. Thereafter, the gel was taken out from the solution. This gel was washed with 100 mL of 10 mM Tris-acetate buffer (pH=7.4) for 10 minutes twice. Thereafter, a fluorescent image of the gel was photographed by using a fluoro image analyzer FLA-5000 (Fuji Photo Film Co., Ltd.) at an excitation wavelength of 473 nm with use of a fluorescence detecting filter of 510 nm. […]

Molecule	selective adsorption of phosphorylated peptide ([1]; mixed sample of P-p60c and p60c, complex formed with zinc acetate, bonded to Streptavidin agarose)	isolation/recovery rate of the peptide, fraction 7 [2]	isolation/recovery rate of the peptide, fraction 8 [2]	isolation/recovery rate of the peptide, fraction 9 [2]	isolation/recovery rate of the peptide, fraction 10 [2]	isolation/recovery rate of the peptide, fraction 11 [2]	isolation/recovery rate of the peptide, fraction 12 [2]	isolation/recovery rate of the peptide to the total amount, fraction 1 [1]	isolation/recovery rate of the peptide to the total amount, fraction 5 [1]	isolation/recovery rate of the peptide to the total amount, fraction 2 [1]	isolation/recovery rate of the peptide to the total amount, fraction 6 [1]	isolation/recovery rate of the peptide to the total amount, fraction 3 [1]	isolation/recovery rate of the peptide to the total amount, fraction 4 [1]	dyeing of proteins in the gel by the conventional dyeing process ([3]; same gel, FIG. 9 gel B)	identification (fluorescent labeling) of proteins in the gel ([3]; 1 μM compound + 100 μM zinc acetate, 10 mM Tris-acetate pH 7.4, 30 minutes, excitation 473 nm, FIG. 9 gel A)
N,N,N′-Tri(2-pyridylmethyl)-N′-[5-N″-2-(6-D-biotinamidohexacarboxyamidoethyl)carbamoyl-2-pyridylmethyl]-1,3-diaminopropane-2-ol [Production Example 3-1]	can adsorb selectively a phosphorylated peptide	–	–	–	–	–	–	–	–	–	–	–	–	–	–
p60c: non-phosphorylated peptide p60c (p60c-src peptide 521–533) (DYFTSTEPQYQPG; UniProt P12931 521-533, looked up, fragment)	–	75%	20%	5%	0%	0%	0%	67%	0%	24%	0%	9%	0%	–	–
Coomassie brilliant blue	–	–	–	–	–	–	–	–	–	–	–	–	–	all the peptides were dyed	–
O=C(NCCNC(=S)Nc1ccc(-c2c3ccc(=O)cc-3oc3cc(O)ccc23)c(C(=O)O)c1)c1ccc(CN(Cc2ccccn2)CC(O)CN(Cc2ccccn2)Cc2ccccn2)nc1 (stereo not drawn) [Production Example 8-1, N,N,N′-Tri(2-pyridylmethyl)-N′-[5-N″-(2-N-5-fluoresceinylthioureidoethyl)carbamoyl-2-pyridylmethyl]-1,3-diaminopropane-2-ol]	–	–	–	–	–	–	–	–	–	–	–	–	–	–	only 5: α-casein (phosphorylated), 7: β-casein (phosphorylated) and 9: pepsin (phosphorylated) to all of which the phosphoric acid has been bonded were identified exclusively
P-p60c: phosphorylated peptide P-p60c (O-phosphoryl p60c-src peptide 521–533) (DYFTSTEPQYQPG; also: O-phosphotyrosine, position not given here; UniProt P12931 521-533, looked up, fragment)	–	83%	17%	0%	0%	0%	0%	0%	83%	0%	17%	0%	0%	–	–
